Test results reported in article PMC4865820, “Branched Peptide, B2088, Disrupts the Supramolecular Organization of Lipopolysaccharides and Sensitizes the Gram-negative Bacteria” (Scientific Reports, 2016).

Key:
P. aeruginosa DR4877/07 [1] = assay: microbe, parasite or virus in culture; conditions: for MIC: Pseudomonas aeruginosa, DR4877/07, 24 h, read-out: MIC of antibiotics
Method: MIC of each peptide was determined using the microdilution method in a 96 well microtitre plates (SPL Life Sciences Co., Ltd, Korea). Two-fold serial dilutions of each peptide in Mueller-Hinton Broth (MHB) was prepared from a 1 mg/ml stock solution of the peptide in the same broth, to obtain a final concentration in the range of 0.0976–50 μg/ml in each well. Bacterial suspensions (P. aeruginosa ATCC 27853, P. aeruginosa 4877, P. aeruginosa 23155, K. pneumoniae ATCC 10031 and K. pneumoniae 4299) were prepared by suspending the overnight cultured bacteria in saline and adjusting the inoculum to ~10^8 colony forming units (CFU) per ml. A further 150-fold dilution was then prepared in MHB to achieve a final cell density of 10^5–10^6 CFU/ml. In each well, 100 μl of inoculum was mixed with the equal volume of peptides at their 2× concentration. Positive and negative controls contained 200 μl of inoculum (without any peptide) and broth alone (no peptide/inoculum) respectively. Another negative control in which MHB containing 200 μl of peptide alone in its highest concentration tested (50 μg/ml) was also included to ensure that the optical density measured in the test wells was not due to turbidity of the peptides in solution. The 96 well polystyrene plates were then incubated at 37 °C for 24 h and the optical density at 600 nm (OD600) was measured every 30 min continuously using a TECAN microplate reader (TECAN Infinite 200, Austria).

P. aeruginosa DR4877/07 [2] = assay type: cell-based; conditions: for FICI of B2088-antibiotic combination: lowest FICI reported, two independent duplicates
Method: The synergism between peptides with conventional antibiotics was evaluated using checkerboard assays. For a comparison polymyxin B (PMB) was also tested against each antibiotic. From their stock solutions, two-fold dilutions of each antibiotic and peptide to 1× MIC were prepared in MHB. 50 μl of each peptide concentration was added into the wells of a 96-well polystyrene plates (SPL Life Sciences Co. Ltd, Korea) in a horizontal orientation and the same volume of each antibiotic concentration were then added in a vertical orientation. Bacterial suspensions were prepared in MHB to yield final cell density of ~10^6 CFU/ml and 100 μl of bacterial suspension was mixed with each peptide-antibiotic combinations. This procedure was repeated for wells containing 200 μl of peptide alone and 200 μl of antibiotic alone in various concentrations. The positive and negative controls contained 200 μl of inoculum and MHB alone respectively. The plates were incubated at 37 °C for 24 hours and the optical density at 600 nm (OD600) was monitored as before. Fractional inhibitory concentration index (FICI) for all antibiotic- peptide combinations was calculated through the summation of (MIC of peptide in the combination/ MIC of peptide alone) and (MIC of antibiotics in combination/MIC of antibiotic alone). The experiments were performed in two independent duplicates and the combinations that gave the lowest FICI values was reported.

[3] = tested on: LPS (E. coli serotype 055:B5); assay: BODIPY TR cadaverine (BC) displacement assay with LPS; assay type: binding
Excerpt: To investigate the interaction of B2088 with LPS, we performed the BODIPY TR cadaverine (BC) displacement assay reported by Wood et al.[22]. The probe binds to the lipid A part of the LPS with moderate affinity and can be displaced by putative LPS-binding molecules. The method was used to probe the affinity of polycationic molecules and LPS binding proteins. First, we determined the affinity of polymyxin B (PMB), a lipopeptide cyclic antibiotic which has a high affinity for LPS. […] Figure 1a,b show the concentration-dependent displacement of LPS/lipid A-bound BC upon addition of B2088. […] To confirm the importance of branching, we determined the BC50 for a linear retrodimer having the amino acid sequence, […] (Fig. 1d). The determined value was 2-fold higher (3.9 ± 0.1 μM) than that of B2088, confirming a weaker affinity of the linear peptide.
The BC displacement assay was used to determine the ability of each peptide to bind to LPS. The florescent probe, BODIPY TR cadaverine (BC) was purchased from Molecular Probes/ Invitrogen (USA). A stock solution containing 1 mg/ml of LPS (E. coli serotype 055:B5) was prepared in dimethyl sulfoxide (DMSO) and another stock solution containing 1 mg/ml of BC dye was prepared in 5 mM HEPES buffer (pH 7.4). The optimum saturation concentration of BC:LPS ratio was standardized following the protocol provided by Wood et al. (22). From the BC stock, 240 μl was mixed with 500 μl from the LPS stock solution in 5 mM HEPES buffer (pH 7.4) to prepare 20 ml of BC:LPS mixture. Two-fold serial dilutions of each peptide in 5 mM HEPES buffer (pH 7.4) was prepared from their 1 mg/ml stock solutions to obtain a final range of 0.02–25.6 μM. The BC:LPS mixture was added to 100 μl of each peptide congener in a 1:1 ratio in each well of a 96-well black Costar™ polystyrene microtitre plate (Corning Incorporated, NY, USA). The maximum fluorescence intensity (Fmax) was determined using a mixture containing 100 μl PMB (50 μg/ml) and 100 μl BC:LPS solution, as PMB is considered the ‘gold standard’ for LPS-sequestering agents. The minimum fluorescence intensity (F0) was measured using 200 μl of BC:LPS mixture to determine the background noise for this experiment. Fluorescence measurements for each peptide (F) were determined using a microplate reader (Model: TECAN Infinite 200, Austria) with excitation and emission wavelengths set at 580 nm and 620 nm respectively. The percentage of BC displacement was then calculated using the formula: […]
The experiments were performed in duplicates and the effective concentration required for 50% displacement of BC dye (ED50) from LPS with respect to PMB was determined by curve fitting using Graphpad Prism (CA, USA). A higher ED50 value for the peptide indicates a lower affinity for LPS.

[4] = MIC of B2088 6.25 μg/ml, MHB, ~10^6 CFU/ml, 37 °C, 24 h

Molecule | MIC (P. aeruginosa DR4877/07 [1]) [mg/L] | MIC of antibiotics in the presence of ½× sub-MIC of B2088 (P. aeruginosa DR4877/07 [2]; [4]) [mg/L] | MIC of antibiotics in the presence of ¼× sub-MIC of B2088 (P. aeruginosa DR4877/07 [2]; [4]) [mg/L] | FICI of B2088-antibiotic combination (P. aeruginosa DR4877/07 [2]) | further results
O=C(O)c1cn(C2CC2)c2cc(N3CCNCC3)c(F)cc2c1=O [Ciprofloxacin] | 12.5 |  |  |  | 
RGRKVVRRKKRRVVKRGR [linear retrodimer] |  |  |  |  | FICI with chloramphenicol (P. aeruginosa DR4877/07 [2]; additive effect): 1; FICI with gatifloxacin (P. aeruginosa DR4877/07 [2]; additive effect): 1; FICI with tobramycin (P. aeruginosa DR4877/07 [2]; additive effect): 1; ED50 (50% displacement of BC dye from LPS; also called BC50) ([3]; 5 mM HEPES pH 7.4, fluorescence ex 580/em 620 nm, with respect to PMB, duplicates): 3.9 ± 0.1 µM; BC50 fold higher than that of B2088 ([3]; LPS-bound BC): 2 fold
NC[C@H]1O[C@H](O[C@H]2[C@H](O)[C@@H](O[C@H]3O[C@H](CO)[C@@H](O)[C@H](N)[C@H]3O)[C@H](N)C[C@@H]2N)[C@H](O)[C@@H](O)[C@@H]1O [Kanamycin, reference compound] |  | 800 | 1600 | 0.75 | MIC of antibiotics (P. aeruginosa DR4877/07 [1]; antibiotic alone, MHB, 37 °C, 24 h, OD600): 3200 mg/L; Fold decrease in the MIC of antibiotics at sub-lethal/sub-inhibitory concentrations of B2088 (P. aeruginosa DR4877/07 [2]; multidrug resistant P. aeruginosa 4877): 4 fold

More lines, main results first:

MIC (P. aeruginosa DR4877/07 [1]) [mg/L] | MIC of antibiotics in the presence of ½× sub-MIC of B2088 (P. aeruginosa DR4877/07 [2]; [4]) [mg/L] | MIC of antibiotics in the presence of ¼× sub-MIC of B2088 (P. aeruginosa DR4877/07 [2]; [4]) [mg/L] | Molecule | FICI of B2088-antibiotic combination (P. aeruginosa DR4877/07 [2]) | further results
3200 | 400 |  | CCn1cc(C(=O)O)c(=O)c2ccc(C)nc21 [Nalidixic acid, reference compound] | 0.63 | FICI of polymyxin B-antibiotic combination (P. aeruginosa DR4877/07 [2]): 1.0
100 | 50 |  | CC[C@H]1OC(=O)[C@H](C)[C@@H](O[C@H]2C[C@@](C)(OC)[C@@H](O)[C@H](C)O2)[C@H](C)[C@@H](O[C@@H]2O[C@H](C)C[C@H](N(C)C)[C@H]2O)[C@](C)(O)C[C@@H](C)C(=O)[C@H](C)[C@@H](O)[C@]1(C)O [Erythromycin, reference compound] | 1.0 | 
0.78 | 0.0975 | 0.195 | C[C@@H](O)[C@H]1C(=O)N2C(C(=O)O)=C(SCCN=CN)C[C@H]12 [Imipenem, reference compound] |  | 
200 | 50 | 100 | [H]/N=C(/N)N[C@H]1[C@H](O)[C@@H](O)[C@H](O[C@@H]2O[C@@H](C)[C@](O)(C=O)[C@H]2O[C@@H]2O[C@@H](CO)[C@H](O)[C@@H](O)[C@@H]2NC)[C@@H](N/C(N)=N\[H])[C@@H]1O [Streptomycin, reference compound] | 0.75 | MIC of antibiotics in the presence of ⅛× sub-MIC of B2088 (P. aeruginosa DR4877/07 [2]; [4]): 100 mg/L
50 | 12.5 |  | C[C@H]1COc2c(N3CCN(C)CC3)c(F)cc3c(=O)c(C(=O)O)cn1c23 [Levofloxacin, reference compound] | 0.75 | 
